Measurements reported in patent US20120214736A1, “COMPOSITIONS AND METHODS FOR THE MODULATION OF JNK PROTEINS” (Isis Pharmaceuticals, Inc., priority 2006, published 2012).
In the oligonucleotide strings, read from the 5' end, every base follows the letter of its sugar. An asterisk marks phosphorothioate; unmarked linkages are phosphodiester. Other units and linkages are bracketed, terminal groups are in braces. A string of capitals states the bases alone. e = 2'-O-(2-methoxyethyl) (MOE); [5mC] = 5-methylcytosine; d = 2'-deoxy (DNA)

Experiments:
JNK1 mRNA = assay: Northern assay, JNK1 mRNA expression in A549 cells; format: cell-based, human; settings: for response of JNK1 mRNA levels in A549 cells (dose and sequence dependence): 50, 100, 200 and 400 nM; for RNA % Inhibition: 300 nM for initial 20 hours then 200 nM for 4 hours
Protocol: (§1) In order to evaluate the activity of potential JNK-modulating oligonucleotides, human lung carcinoma cell line A549 (American Type Culture Collection, Rockville, Md. No. ATCC CCL-185) cells or other cell lines as indicated in the Examples, were grown and treated with oligonucleotides or control solutions as detailed below. After harvesting, cellular extracts were prepared and examined for specific JNK mRNA levels or JNK protein levels (i.e., Northern or Western assays, respectively). In all cases, “% expression” refers to the amount of JNK-specific signal in an oligonucleotide-treated cell relative to an untreated cell (or a cell treated with a control solution that lacks oligonucleotide).
(§2) Northern Assays The mRNA expression of each JNK protein was determined by using a nucleic acid probe specifically hybridizable thereto. Nucleic acid probes specific for JNK1, JNK2 and JNK3 are described in Examples 3, 4 and 5, respectively. The probes were radiolabelled by means well known in the art (see, e.g., Short Protocols in Molecular Biology, 2nd Ed., Ausubel et al., Eds., John Wiley & Sons, New York, 1992, pages 3-11 to 2-3-44 and 4-17 to 4-18; Ruth, Chapter 6 In: Methods in Molecular Biology, Vol. 26: Protocols for Oligonucleotide Conjugates, Agrawal, ed., Humana Press Inc., Totowa, N.J., 1994, pages 167-185; and Chapter 10 In: Molecular Cloning: A Laboratory Manual, 2nd Ed., Sambrook et al., Eds., pages 10.1-10.70). The blots were stripped and reprobed with a ^32P-labeled glyceraldehyde 3-phosphate dehydrogenase (G3PDH) probe (Clontech Laboratories, Inc., Palo Alto, Calif.) in order to confirm equal loading of RNA and to allow the levels of JNK transcripts to be normalized with regard to the G3PDH signals.
(§3) A549 cells were grown in T-75 flasks until 80-90% confluent. At this time, the cells were washed twice with 10 mL of media (DMEM), followed by the addition of 5 mL of DMEM containing 20 ┘g/mL of LIPOFECTIN™ (i.e., 1:1 (w/w) DOTMA/DOPE, Life Technologies, Gaithersburg, Md.; DOTMA=N-[1-(2,3-dioleyoxy)propyl]-N,N,N-trimethylammonium chloride; DOPE=dioleoyl phosphatidylethanolamine). The oligonucleotides were added from a 10 μM stock solution to a final concentration of 400 nM, and the two solutions were mixed by swirling the flasks. As a control, cells were treated with LIPOFECTIN™ without oligonucleotide under the same conditions and for the same times as the oligonucleotide-treated samples. After 4 hours at 37° C., the medium was replaced with fresh DMEM containing 10% serum. The cells were allowed to recover for 18 hours. Total cellular RNA was then extracted in guanidinium, subject to gel electrophoresis and transferred to a filter according to techniques known in the art (see, e.g., Chapter 7 In: Molecular Cloning: A Laboratory Manual, 2nd Ed., Sambrook et al., Eds., pages 7.1-7.87, and Short Protocols in Molecular Biology, 2nd Ed., Ausubel et al., Eds., John Wiley & Sons, New York, 1992, pages 2-24 to 2-30 and 4-14 to 4-29). Filters were typically hybridized overnight to a probe specific for the particular JNK gene of interest in hybridization buffer (25 mM KPO4, pH 7.4; 5×SSC; 5×Denhardt's solution, 100 µg/ml Salmon sperm DNA and 50% formamide) (Alahari et al., Nucl. Acids Res., 1993, 21, 4079). This was followed by two washes with 1×SSC, 0.1% SDS and two washes with 0.25×SSC, 0.1% SDS. Hybridizing bands were visualized by exposure to X-OMAT AR film and quantitated using a PHOSPHORIMAGER™ essentially according to the manufacturer's instructions (Molecular Dynamics, Sunnyvale, Calif.).
JNK1-specific probes: In initial screenings of a set of oligonucleotides derived from the JNK1 sequence (Table 2) for biological activity, a cDNA clone of JNK1 (Derijard et al., Cell, 1994, 76, 1025) was radiolabeled and used as a JNK1-specific probe in Northern blots. Alternatively, however, one or more of the oligonucleotides of Table 1 is detectably labeled and used as a JNK1-specific probe. […]

JNK2 mRNA = assay: Northern assay, JNK2 mRNA expression in A549 cells; format: cell-based, human; settings: for response of JNK2 mRNA levels in A549 cells (dose and sequence dependence): 50, 100, 200 and 400 nM
Protocol: as §1, §2
as §3, with “This was followed by two washes with 1×SSC, 0.1% SDS and two washes with 0.25×SSC, 0.1% SDS.” left out, “Calif.). […]” for “Calif.).”

[1] = system: TNFa-induced JNK activity; assay: TNFa-induced JNK activity in HUVEC (GST-c-Jun phosphorylation); format: cell-based, human; settings: 100 nM, 5 ng/ml TNFa 15 minutes, compared to a control oligonucleotide
Protocol: Human umbilical vein endothelial cells (HUVEC, Clonetics, San Diego Calif.) were incubated with oligonucleotide with LipofectinJ in Opti-MEMJ for 4 hours at 37° C./5% CO2. The medium was then replaced with 1% FBS/EGM (Clonetics, Walkersville Md.) and incubated for 24 hours at 37° C./5% CO2. Cells were treated with 5 ng/ml TNFa for 15 minutes before lysis. JNK activity was determined by incubating lysates (normalized for protein) with immobilized GST-c-Jun fusion protein (e.g., New England Biolabs, Beverly, Mass.)+^32P-ATP. GST-c-Jun beads were washed and SDS-PAGE sample buffer was added. Samples were resolved by SDS-PAGE and phosphorylated c-Jun was visualized using a Molecular Dynamics PhosphorImager.

rat JNK2 mRNA = assay: Northern assay, rat JNK2 (p54a) mRNA levels in A10 aortic smooth muscle cells; format: cell-based; settings: Northern assays
Protocol: (§4) In order to study the role of JNK proteins in animal models, oligonucleotides targeted to the genes encoding JNK1, JNK2 and JNK3 of Rattus norvegicus were prepared. These oligonucleotides are 2′-methoxyethoxy, phosphodiester/2′-hydroxyl, phosphorothioate/2′-methoxyethoxy, phosphodiester “gapmers” in which every cytosine residue is 5-methylcytosine (m5c). These antisense compounds were synthesized according to the methods of the disclosure. Certain of these oligonucleotides are additionally specifically hybridizable to JNK genes from other species as indicated herein. The oligonucleotides described in this Example were tested for their ability to modulate rat JNK mRNA levels essentially according to the methods described in the preceding Examples, with the exceptions that the cell line used was rat A10 aortic smooth muscle cells (ATCC No. ATCC CRL-1476) and the probes used were specific for rat JNK1, JNK2 or JNK3 (see infra). A10 cells were grown and treated with oligonucleotides essentially as described by (Cioffi et al. Mol. Pharmacol., 1997, 51, 383).
(§5) These antisense compounds were tested for their ability to modulate levels of (JNK1) and (JNK2) mRNA in A10 cells via Northern assays. Due to the high degree of sequence identity between the human and rat genes, radiolabeled human JNK1 (Example 3) and JNK2 (Example 4) cDNAs functioned as specific probes for the rat homologs. […]

rat JNK1 mRNA = assay: Northern assay, rat JNK1 mRNA levels in A10 aortic smooth muscle cells; format: cell-based; settings: Northern assays
Protocol: as §4, §5

human JNK2 mRNA = assay: Northern analysis, human JNK2 mRNA in Jurkat cells (electroporation, dose response); format: cell-based; settings: Jurkat cells
Protocol: Jurkat cells were routinely cultured in RPMI Medium 1640 (Gibco/Life Technologies, Gaithersburg, Md.) supplemented with 20% fetal calf serum (Gibco/Life Technologies, Gaithersburg, Md.). Cells were routinely passaged by aspirating media that contained excess cells and replenishing with new media.
For electroporation, cells were diluted to 28×10^6 cells/mL and placed into 1 mm electroporation cuvettes. Electroporation is performed by treating with 1-20 μM oligonucleotide, at 160 Volts for 6 msec. The entire electroporated samples are then placed into 5 mL of 10% FBS/RPMI Medium 1640 in 100 mm plates. Plates are then left overnight at 37° C./5% CO2.
Each sample is then transferred to 15 mL conical tubes and spun down at 1200 rpm for 5 minutes followed by aspiration of the supernatant. Cells are then suspended in 5 mL PBS followed by a second centrifugation at 1200 rpm for 5 minutes followed by aspiration of the supernatant. Cells are then washed and lysed. Following the lysis step, total cellular RNA is then isolated using the RNEASY kit (Qiagen, Santa Clarita, Calif.) as described in other examples herein.
In accordance with the present invention, Jurkat cells were treated by electroporation with 1, 5 or 20 uM ISIS 101759 or the control oligonucleotide and mRNA levels of human JNK2 were quantitated by Northern analysis.

12539 (antisense CTCTCTGTAGGCCCGCTTGG; DNA, all phosphorothioate, methylation of C not given here) [compound 12539]
response of JNK1 mRNA levels in A549 cells (dose and sequence dependence) (JNK1 mRNA): dependent on dose in an approximately linear fashion | RNA % Inhibition (JNK1 mRNA; t = 48 h): 93.3% | RNA % Inhibition (JNK1 mRNA; t = 72 h): 88.3% | response of JNK2 mRNA levels in A549 cells (dose and sequence dependence) (JNK2 mRNA): dependent on dose in an approximately linear fashion

12560 (antisense dG*dT*dC*dC*dG*dG*dG*dC*dC*dA*dG*dG*dC*dC*dA*dA*dA*dG*dT*dC) [compound 12560]
level of inhibition of JNK2 (JNK2 mRNA; for at least about 12 hours following the 4 hour treatment): greater than or equal to 80% | level of inhibition of JNK2 (JNK2 mRNA; up to at least about t=48 h): greater than or equal to 60%

14318 (sense dG*dA*dC*dT*dT*dT*dG*dG*dC*dC*dT*dG*dG*dC*dC*dC*dG*dG*dA*dC) [compound 14318]
response of JNK2 mRNA levels in A549 cells (dose and sequence dependence) (JNK2 mRNA): neither of the control oligonucleotides effect any consistent response

14319 (dG*dT*dG*dC*dG*dC*dG*dC*dG*dA*dG*dC*dC*dC*dG*dA*dA*dA*dT*dC) [compound 14319]
response of JNK2 mRNA levels in A549 cells (dose and sequence dependence) (JNK2 mRNA): neither of the control oligonucleotides effect any consistent response

14320 (sense CCAAGCGGGCCTACAGAGAG; DNA, all phosphorothioate, methylation of C not given here) [compound 14320]
response of JNK1 mRNA levels in A549 cells (dose and sequence dependence) (JNK1 mRNA): neither of the control oligonucleotides effect any consistent response

14321 (CTTTCCGTTGGACCCCTGGG; DNA, all phosphorothioate, methylation of C not given here) [compound 14321]
response of JNK1 mRNA levels in A549 cells (dose and sequence dependence) (JNK1 mRNA): neither of the control oligonucleotides effect any consistent response

15346 (antisense CTCTCTGTAGGCCCGCTTGG; gapmer: P=S, 2'-MOE wings, 2'-deoxy core, chemistry not fully specified) [compound 15346]
RNA % Inhibition (JNK1 mRNA; t = 48 h): 95.7% | RNA % Inhibition (JNK1 mRNA; t = 72 h): 89.4%

15353 (antisense GTCCGGGCCAGGCCAAAGTC; P=S gapmer, 2'-MOE wings, chemistry not fully specified) [compound 15353]
inhibition of TNFa-induced JNK activity [1]: approximately 55%

18259 (antisense eGe[5mC]eTe[5mC]eA*dG*dT*dG*dG*dA*d[5mC]*dA*dT*dG*dG*eAeTeGeAeG) [compound 18259]
specific modulation of mRNA encoding JNK2 (dose response) (rat JNK2 mRNA): specifically modulates levels of mRNA encoding JNK1 and JNK2, respectively

21859 (antisense e[5mC]eTe[5mC]eAeT*dG*dA*dT*dG*dG*d[5mC]*dA*dA*dG*d[5mC]*eAeAeTeTeA) [compound 21859]
specific modulation of mRNA encoding JNK1 (dose response) (rat JNK1 mRNA): specifically modulates levels of mRNA encoding JNK1 and JNK2, respectively

101759 (antisense GCTCAGTGGACATGGATGAG; sugars from the 5' end e5 d10 e5, all phosphorothioate, methylation of C not given here) [compound 101759]
Percent Inhibition of human JNK2 mRNA (human JNK2 mRNA; 1 uM): 14% | Percent Inhibition of human JNK2 mRNA (human JNK2 mRNA; 5 uM): 56% | Percent Inhibition of human JNK2 mRNA (human JNK2 mRNA; 20 uM): 92%
